# In ChEMBL document CHEMBL2157975 (Bioorg Med Chem Lett, 2012):
# What was measured:
# [1] = biological target: T1, Type-1 angiotensin II receptor (Homo sapiens, UniProt P30556); assay: Inhibition of AT1 receptor
# T1 sequence (P30556 whole entry): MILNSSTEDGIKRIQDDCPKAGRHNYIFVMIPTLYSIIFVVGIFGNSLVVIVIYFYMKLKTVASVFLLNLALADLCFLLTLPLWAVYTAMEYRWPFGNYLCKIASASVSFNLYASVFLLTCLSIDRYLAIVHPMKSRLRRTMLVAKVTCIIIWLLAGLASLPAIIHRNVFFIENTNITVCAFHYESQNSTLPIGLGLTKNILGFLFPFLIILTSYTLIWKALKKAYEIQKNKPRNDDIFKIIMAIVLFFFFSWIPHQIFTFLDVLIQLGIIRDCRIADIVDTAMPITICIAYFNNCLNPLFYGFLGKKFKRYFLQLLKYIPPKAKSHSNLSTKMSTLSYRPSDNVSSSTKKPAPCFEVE
# [2] = biological target: T2, Apelin receptor (Homo sapiens, UniProt P35414); assay: Antagonist activity at APJ receptor expressed in CHOK1 cells assessed as inhibition of apelin13-induced beta-arrestin recruitment after 90 mins by luminescence assay; assay type: functional, cell-based, CHO-K1
# T2 sequence (P35414 whole entry): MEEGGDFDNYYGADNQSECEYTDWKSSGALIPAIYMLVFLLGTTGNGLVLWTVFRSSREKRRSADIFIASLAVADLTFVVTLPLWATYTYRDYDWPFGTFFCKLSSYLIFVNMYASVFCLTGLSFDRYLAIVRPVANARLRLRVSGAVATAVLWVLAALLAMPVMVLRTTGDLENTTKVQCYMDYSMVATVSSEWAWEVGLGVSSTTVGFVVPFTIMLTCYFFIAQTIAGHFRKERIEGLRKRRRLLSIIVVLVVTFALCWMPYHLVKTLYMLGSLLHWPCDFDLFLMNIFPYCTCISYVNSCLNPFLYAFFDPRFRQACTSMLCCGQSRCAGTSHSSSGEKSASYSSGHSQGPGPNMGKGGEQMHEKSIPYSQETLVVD
# [3] = Selectivity ratio of IC50 for AT1 receptor to IC50 for APJ receptor (unknown receptor)
# [4] = Drug degradation in aqueous acetonitrile solution assessed as ester bond hydrolysis; assay type: physicochemical; details: buffer
Compound,IC50 [1] [µM],IC50 [2] [µM],Ratio IC50 [3],Drug degradation [4]
O=c1cc(CSc2ncccn2)occ1O,> 79,> 79,,
Cc1ccnc(SCc2cc(=O)c(O)co2)n1,> 79,> 79,,
Cc1ccnc(SCc2cc(=O)c(NC(=O)c3ccc([N+](=O)[O-])cc3)co2)n1,> 79,> 79,,
Cc1ccnc(SCc2cc(=O)c(OC(=O)c3ccccc3)co2)n1,> 79,> 79,,
O=C(Oc1coc(CSc2ncccn2)cc1=O)c1ccc(S(=O)(=O)N2CCCC2)cc1,> 79,> 79,,
Cc1ccnc(SCc2cc(=O)c(OC(=O)c3ccsc3)co2)n1,> 79,> 79,,
COc1ccc(SCc2cc(=O)c(OC(=O)c3ccc(Cl)c([N+](=O)[O-])c3)co2)cc1,> 79,8.27,> 9,
O=C(Oc1coc(CSc2ccccc2)cc1=O)c1ccc(Cl)c([N+](=O)[O-])c1,> 79,9.61,> 8,
Cc1ccnc(S(=O)(=O)Cc2cc(=O)c(OC(=O)c3ccc(Cl)c([N+](=O)[O-])c3)co2)n1,> 79,3.21,> 25,
O=C(Oc1coc(CSc2ccc(OC(F)(F)F)cc2)cc1=O)c1ccc(Cl)c([N+](=O)[O-])c1,> 79,24,> 3,
Cc1cc(C)nc(SCc2cc(=O)c(OS(=O)(=O)c3ccccc3)co2)n1,> 79,> 79,,
Cc1ccnc(SCc2cc(=O)c(OC(=O)c3ccco3)co2)n1,> 79,> 79,,
COc1cc(C(=O)Oc2coc(CSc3ncccn3)cc2=O)c([N+](=O)[O-])cc1OC,> 79,> 79,,
Cc1ccnc(SCc2cc(=O)c(OCc3ccc(Cl)c([N+](=O)[O-])c3)co2)n1,> 79,> 79,,
Cc1ccnc(SCc2cc(=O)c(OC(=O)c3ccc(C#N)cc3)co2)n1,> 79,,> 7,
Cc1ccnc(SCc2cc(=O)c(NC(=O)c3ccccc3)co2)n1,> 79,> 79,,
Cc1ccnc(SCc2cc(=O)c(OC(=O)c3ccc(S(=O)(=O)N4CCCC4)cc3)co2)n1,> 79,,,
Cc1ccnc(SCc2cc(=O)c(OC(=O)c3cc(Cl)ccc3[N+](=O)[O-])co2)n1,> 79,,,
Cc1ccnc(SCc2cc(=O)c(OC(=O)c3ccc(OC(F)(F)F)cc3)co2)n1,> 79,> 79,,

Compound,IC50 [1] [µM],IC50 [2] [µM],Ratio IC50 [3],Drug degradation [4]
Cc1ccnc(SCc2cc(=O)c(OC(=O)c3cnco3)co2)n1,> 79,> 79,,
Cc1ccnc(SCc2cc(=O)c(OC(=O)c3cc([N+](=O)[O-])ccc3Cl)co2)n1,> 79,,,
Cc1ccnc(SCc2cc(=O)c(OCc3ccccc3)co2)n1,> 79,> 79,,
O=C(Oc1coc(CSc2ccc(Cl)cc2)cc1=O)c1ccc(Cl)c([N+](=O)[O-])c1,> 79,4.53,> 17,
Cc1cc(C)nc(SCc2cc(=O)c(OS(=O)(=O)c3ccc([N+](=O)[O-])cc3)co2)n1,> 79,> 79,,
Cc1ccnc(SCc2cc(=O)c(OC(=O)C(C)(C)C)co2)n1,> 79,> 79,,
Cc1ccnc(SCc2cc(=O)c(OC(=O)c3ccccc3Cl)co2)n1,> 79,> 59,,
Cc1ccnc(SCc2cc(=O)c(OC(=O)c3ccc([N+](=O)[O-])cc3)co2)n1,> 79,,> 23,
O=c1cc(CSc2ccccc2)occ1O,> 79,> 79,,
Cc1ccnc(SCc2cc(=O)c(OC(=O)c3ccc(C(F)(F)F)cc3)co2)n1,> 79,,,
O=C(Oc1coc(CSc2ncccn2)cc1=O)c1ccc(S(=O)(=O)N2CCOCC2)cc1,> 79,> 79,,
O=c1cc(CSc2ccc(F)cc2)occ1O,> 79,> 79,,
O=C(Oc1coc(CSc2ncccn2)cc1=O)c1ccc(S(=O)(=O)N2CCCCC2)cc1,> 79,> 79,,
Cc1ccnc(SCc2cc(=O)c(OC(=O)c3ccc([N+](=O)[O-])o3)co2)n1,> 79,> 79,,
CC(=O)Oc1coc(CSc2nccc(C)n2)cc1=O,> 79,> 79,,
Cc1ccc(SCc2cc(=O)c(OC(=O)c3ccc(Cl)c([N+](=O)[O-])c3)co2)cc1,> 79,12.8,> 6,
Cc1cc(C)nc(SCc2cc(=O)c(O)co2)n1,> 79,> 79,,
Cc1ccnc(SCc2cc(=O)c(OC(=O)c3ccc(Cl)c([N+](=O)[O-])c3)co2)n1,,,,Active
Cc1ccnc(SCc2cc(=O)c(OC(=O)C(C)C)co2)n1,> 79,> 79,,

# Continued, values first:
IC50 [1] [µM],IC50 [2] [µM],Ratio IC50 [3],Drug degradation [4],Compound
> 79,> 79,,,Cc1ccnc(SCc2cc(=O)c(OC(=O)c3ccccc3C)co2)n1
> 79,> 79,,,CC(C)(C)c1ccc(C(=O)Oc2coc(CSc3ncccn3)cc2=O)cc1
> 79,> 79,,,Cc1ccnc(SCc2cc(=O)c(OC(=O)c3ccc(Cl)cc3)co2)n1
> 79,> 79,,,COc1ccc(C(=O)Oc2coc(CSc3nccc(C)n3)cc2=O)cc1
> 79,,,,Cc1c(C(=O)Oc2coc(CSc3ncccn3)cc2=O)cccc1[N+](=O)[O-]
> 79,> 79,,,COc1ccc(C(=O)Oc2coc(CSc3ncccn3)cc2=O)cc1
> 79,> 79,,,Cc1ccc(C(=O)Oc2coc(CSc3ncccn3)cc2=O)cc1
> 79,> 79,,,CCCCOc1ccc(C(=O)Oc2coc(CSc3ncccn3)cc2=O)cc1
> 79,,,,Cc1ccnc(SCc2cc(=O)c(OC(=O)c3cccc([N+](=O)[O-])c3)co2)n1
> 79,,,,O=C(Oc1coc(CSc2ncccn2)cc1=O)c1ccc(Br)cc1
> 79,,> 13,,O=C(Oc1coc(CSc2ncccn2)cc1=O)c1ccc(Cl)c([N+](=O)[O-])c1
> 79,> 79,,,Cc1ccnc(SCc2cc(=O)c(OC(=O)c3ccc(F)cc3)co2)n1
> 79,> 79,,,COc1cccc(C(=O)Oc2coc(CSc3nccc(C)n3)cc2=O)c1
> 79,> 79,,,O=C(Oc1coc(CSc2ncccn2)cc1=O)c1ccc(-c2ccccc2)cc1
> 79,,,,O=C(Oc1coc(CSc2ncccn2)cc1=O)c1cccc([N+](=O)[O-])c1
> 79,> 79,,,O=C(Oc1coc(CSc2ncccn2)cc1=O)c1ccccc1

IC50 [1] [µM],IC50 [2] [µM],Ratio IC50 [3],Drug degradation [4],Compound
> 79,,,,O=C(Oc1coc(CSc2ncccn2)cc1=O)c1ccc(C(F)(F)F)cc1
> 79,,,,O=C(Oc1coc(CSc2ncccn2)cc1=O)c1ccc(Cl)cc1
> 79,,> 11,,Cc1ccc(C(=O)Oc2coc(CSc3ncccn3)cc2=O)cc1[N+](=O)[O-]
> 79,> 79,,,O=C(Oc1coc(CSc2ncccn2)cc1=O)c1cc(Cl)ccc1[N+](=O)[O-]
> 79,> 79,,,Cc1ccnc(SCc2cc(=O)c(OC(=O)c3cccc(Cl)c3)co2)n1
> 79,> 79,,,O=C(Oc1coc(CSc2ncccn2)cc1=O)c1ccc(F)cc1
> 79,6.59,> 12,,N#Cc1ccc(C(=O)Oc2coc(CSc3ncccn3)cc2=O)cc1
> 79,> 79,,,CCN(CC)S(=O)(=O)c1ccc(C(=O)Oc2coc(CSc3ncccn3)cc2=O)cc1
> 79,> 79,,,Cc1ccc(C(=O)Oc2coc(CSc3nccc(C)n3)cc2=O)cc1
> 79,> 79,,,Cc1cccc(C(=O)Oc2coc(CSc3nccc(C)n3)cc2=O)c1
> 79,> 79,,,CC(C)Oc1ccc(C(=O)Oc2coc(CSc3ncccn3)cc2=O)cc1
> 79,> 79,,,CCOc1ccc(C(=O)Oc2coc(CSc3ncccn3)cc2=O)cc1
> 79,> 79,,,Cc1ccnc(SCc2cc(=O)c(OC(=O)c3cccc(C#N)c3)co2)n1
> 79,,> 17,,Cc1ccnc(SCc2cc(=O)c(OC(=O)c3ccc(C)c([N+](=O)[O-])c3)co2)n1
> 79,> 79,,,Cc1ccc(C(=O)Oc2coc(CSc3ncccn3)cc2=O)cc1C
> 79,> 79,,,CN(C)S(=O)(=O)c1ccc(C(=O)Oc2coc(CSc3ncccn3)cc2=O)cc1
